What was measured:
Brachyspira infection [1] = experiment: Example 5.3: lincomycin nourishment with or without EDTA Na2 salt, livestock with bloody diarrhoea partly resistant to lincomycin; format: in vivo, pigs
From the text: (§1) Testing of Compositions Comprising EDTA on Pigs Suffering from Bloody Diarrhoea (Brachyspira Infection)
At a pig farm infected with the pathogen a nourishment comprising 110 ppm of lincomycin was fed with the livestock suffering from bloody diarrhoea. […] The livestock was separated proportionally, and in the test group 240 ppm of EDTA Na2 salt was admixed to the nourishment, utilizing the premix according to Example 1.

Brachyspira infection [2] = experiment: Example 5.4: lincomycin-resistant animals, lincomycin therapy maintained plus EDTA Na2 in drinking water; format: in vivo, pigs
Method: as §1
In a part of the lincomycin-resistant animals belonging to the livestock according to Example 5.3, no treatment with another antibiotic was performed, but lincomycin therapy was maintained and simultaneously drinking water comprising 60 ppm of EDTA Na2 was added to the animals.

Brachyspira infection [3] = experiment: Example 5.1: prevention of bloody diarrhoea, EDTA Na2 salt in the fodder on an infected pig farm; format: in vivo, pigs; details: 240 ppm EDTA Na2 salt in fodder via premix of Example 1
From the text: as §1
On a pig farm infected with the pathogen 3 test groups of 20 animals each and one control group of 20 animals were formed from 90 days old piglets. The fodder of the animals belonging to the test groups was complemented throughout the test period (which lasted to slaughtering) with 240 ppm of EDTA Na2 salt utilizing the premix as described in Example 1.

Brachyspira infection [4] = experiment: Example 5.2: treatment of pigs suffering from bloody diarrhoea, EDTA Na2 in drinking water; format: in vivo
Method: as §1
Pigs suffering from bloody diarrhoea, husbanded on the farm according to Example 5.1, were treated with EDTA Na2 in such a way that 200 ppm of EDTA Na2 were dissolved in the drinking water of the animals. […] In the control group where on the day following the cease of diarrhoea the animals were returned to drinking of pure water bloody diarrhoea reappeared after 4 days.

Brachyspira infection [5] = experiment: Example 5.5: prevention in weaned piglets with complemented nourishment; format: in vivo, pigs; details: test group: nourishment with 240 ppm EDTA Na2, 22 ppm essential oils (1:1 oregano oil and thyme oil) and 100 ppm tannic acid
From the text: Testing of Compositions Comprising EDTA on Pigs Suffering from Bloody Diarrhoea (Brachyspira Infection) At a pig farm with frequently occurring bloody diarrhoea three groups were formed randomly from weaned piglets at switching to solid nourishment. In the first group (test group) the animals were fed continuously with a nourishment comprising 240 ppm of EDTA Na2, 22 ppm of essential oils (1:1 mixture of oregano oil and thyme oil) and 100 ppm of tannic acid. In the second group (control group 1) the animals were fed continuously with a nourishment comprising essential oils and tannic acid in the above amounts but free of EDTA Na2. In the third group (control group 2) no EDTA Na2, essential oils or tannic acid were added to the nourishment of the animals. After a certain period of time soft faeces and then bloody diarrhoea appeared in the animals of control group 2 (fed with a nourishment without completion). Bacteria of Brachospira type were detected in the faeces.

Structure (SMILES)	cessation of bloody diarrhoea (Brachyspira infection [1]; 240 ppm EDTA Na2 salt (premix of Example 1) admixed to nourishment comprising 110 ppm lincomycin)	later occurrence of bloody diarrhoea (Brachyspira infection [1]; continued feeding with fodder comprising EDTA Na2 salt)	pathogenic bacteria in the faeces (Brachyspira infection [2]; 60 ppm EDTA Na2 in drinking water with lincomycin)	cessation of diarrhoea (Brachyspira infection [2]; 60 ppm EDTA Na2 in drinking water, lincomycin therapy maintained, lincomycin-resistant animals)	reoccurrence of diarrhoea (Brachyspira infection [2]; after terminating lincomycin, EDTA Na2 in drinking water continued)	appearance of bloody diarrhoea (Brachyspira infection [3]; 90 days old piglets, until slaughtering)	need for antibiotic treatment (Brachyspira infection [3]; compared with the other animals of the farm)	cessation of bloody diarrhoea (Brachyspira infection [4]; 200 ppm EDTA Na2 dissolved in drinking water)	time to reappearance of bloody diarrhoea after withdrawal (Brachyspira infection [4]; animals returned to pure water on the day following the cease of diarrhoea) [days]	reoccurrence of bloody diarrhoea (Brachyspira infection [4]; while 200 ppm EDTA Na2 was maintained in the drinking water)	abnormal biological symptoms (soft faeces, bloody diarrhoea) (Brachyspira infection [5])	persistence of bloody diarrhoea (Brachyspira infection [1]; control group: nourishment comprising 110 ppm lincomycin without EDTA Na2 salt)
O=C([O-])CN(CCN(CC(=O)[O-])CC(=O)O)CC(=O)O.[Na+].[Na+] [EDTA Na2 salt]	completely ceased on the third day	no bloody diarrhoea occurred	No pathogenic bacteria could be detected	ceased completely within some days	did not reoccur	No bloody diarrhoea appeared	no antibiotic treatment of the animals of the test groups was required	ceased on the third day	4	did not reoccur	no abnormal biological symptom could be observed	
CCC[C@@H]1C[C@@H](C(=O)N[C@@H]([C@H]2O[C@H](SC)[C@H](O)[C@@H](O)[C@H]2O)[C@@H](C)O)N(C)C1 [lincomycin, reference compound]												bloody diarrhoea still persisted

Source: US8425918B2, “Use of EDTA and its derivatives for prevention and treatment of bacterial intestinal diseases of pigs and for increasing the effects of antibiotics exerted in such diseases” (Pharmatéka Gyártó´és Kereskedelmi BT, priority 2007, dated 2013)
